Patent US10221163B2 (priority 2015, dated 2019)
Like-named read-outs stand apart in the source and are kept apart here.

Columns and labels:
[1] = test system: Pseudomonas aeruginosa efflux+ (MB9798), IMP-1; assay type: cell-based; details: concentration restoring susceptibility to imipenem at 2 μg/mL in the presence of a class A, C, D serine β-lactamase inhibitor closely related to relebactam
Outline: (§1)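 P. aeruginosa PAO1-derived IMP-1 strains, efflux+ MB9798 and efflux− MB9799, tested by standard microbroth MIC with imipenem and/or ceftazidime fixed, usually at CLSI breakpoint, plus fixed class A/C β-lactamase inhibitor against AmpC. Inhibitor titrated; concentration restoring susceptibility recorded; MB9798/MB9799 fold difference indicates efflux.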

[2] = test system: Pseudomonas aeruginosa efflux− (MB9799), IMP-1; assay type: cell-based; details: concentration restoring susceptibility to imipenem at 2 μg/mL in the presence of a class A, C, D serine β-lactamase inhibitor closely related to relebactam
Outline: as §1

VIM-1 = VIM-1 (Pseudomonas aeruginosa (strain ATCC 15692 / DSM 22644 / CIP 104116 / JCM 14847 / LMG 12228 / 1C / PRS 101 / PAO1), UniProt A0A0F7KYQ8); test: biochemical; details: CCF2-FA substrate, 30 pM enzyme, 2 hours at 25° C.
Outline: (§2)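 Class B activity is measured in the presence of compound by fluorescence with CCF2-FA after a 2-hour incubation at 25° C. IC50 is taken from a 4-parameter fit of semi-logarithmic dose-response data.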

NDM-1 = NDM-1 (Klebsiella pneumoniae, UniProt C7C422); test: biochemical; assay type: biochemical; details: fluorescence assay, CCF2-FA substrate, 1 pM enzyme, 2 hours at 25° C.; read-out: NDM-1 IC50
Outline: as §2

IMP-1 = IMP-1 (Serratia marcescens, UniProt P52699); test: biochemical; assay type: biochemical; details: fluorescence assay, CCF2-FA substrate, 2 pM enzyme, 2 hours at 25° C.; read-out: IMP-1 IC50
Outline: as §2

[3] = test system: Pseudomonas aeruginosa MB9798 vs MB9799; details: ratio MITC95 PA_9798/MITC95 PA_9799
Outline: as §1

[4] = test system: Serratia marcescens expressing IMP-1 (CL5741); assay type: cell-based; details: IMP-1 strain CL5741, with imipenem 1 μg/ml, 95% inhibition of growth
Outline: (§3)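 Colonies grown overnight on blood agar at 35° C were suspended in saline, diluted 1:100 into 1.1×CAMHB and dispensed. Imipenem was added to 1 μg/ml, then test compound. After 22 hours to 24 hours at 35° C, absorbance was recorded.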

[5] = test system: Klebsiella pneumoniae expressing VIM-1 (IHMA599644); assay type: cell-based; details: VIM-1 strain IHMA599644, with imipenem 1 μg/ml, 95% inhibition of growth
Outline: as §3

[6] = test system: Escherichia coli expressing NDM-1 (CLB30005, CLB30016); assay type: cell-based; details: NDM-1 strain, with imipenem 1 μg/ml, 95% inhibition of growth
Outline: as §3

[7] = fluorescence assay, read-out: VIM-1 IC50

Sequence of NDM-1 (C7C422 whole entry, looked up, species assumed): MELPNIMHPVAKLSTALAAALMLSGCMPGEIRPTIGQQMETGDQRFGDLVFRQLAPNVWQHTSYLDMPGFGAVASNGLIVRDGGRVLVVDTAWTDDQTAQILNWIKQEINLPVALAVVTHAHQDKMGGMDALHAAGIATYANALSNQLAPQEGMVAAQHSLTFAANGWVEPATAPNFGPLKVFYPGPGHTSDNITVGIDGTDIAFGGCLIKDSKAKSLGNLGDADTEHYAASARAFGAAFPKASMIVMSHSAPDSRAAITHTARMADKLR
Sequence of IMP-1 (P52699 whole entry, looked up, species assumed): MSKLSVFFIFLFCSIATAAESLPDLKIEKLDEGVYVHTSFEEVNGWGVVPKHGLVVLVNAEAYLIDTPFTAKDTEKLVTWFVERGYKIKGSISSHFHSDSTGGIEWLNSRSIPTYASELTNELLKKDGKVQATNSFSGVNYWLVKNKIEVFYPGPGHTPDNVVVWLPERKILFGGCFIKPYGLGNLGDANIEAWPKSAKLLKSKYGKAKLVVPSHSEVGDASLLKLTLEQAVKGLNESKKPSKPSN

| Compound | P. aeruginosa expressing IMP-1, efflux + (MB9798) MITC95 [1] [µM] | P. aeruginosa expressing IMP-1, efflux − (MB9799) MITC95 [2] [µM] | IC50 (VIM-1; VIM-1 IC50, fluorescence assay) [nM] | IC50 (NDM-1) [nM] | IC50 (IMP-1) [nM] | Efflux ratio [3] | Serratia marcescens MITC95 [4] [µM] | Klebsiella pneumoniae MITC95 [5] [µM] | Escherichia coli MITC95 [6] [µM] | IC50 (VIM-1; [7]) [nM] |
| --- | --- | --- | --- | --- | --- | --- | --- | --- | --- | --- |
| NCc1nc2c(-c3ccc(S(=O)(=O)NC[C@H](O)CN)c(S(N)(=O)=O)c3-c3nn[nH]n3)cccc2[nH]1 [Example 299, (R)—N1-(3-amino-2-hydroxypropyl)-4-(2-(aminomethyl)-1H-benzo[d]imidazol-4-yl)-3-(2H-tetrazol-5-yl)benzene-1,2-disulfonamide] | 0.7813 | 0.7813 | 0.154 | 0.265 | 2.65 | 1.00 | 1.563 | 1.563 | 0.7813 | – |
| NCc1nc2c(-c3ccc(S(=O)(=O)NC[C@H](O)CN)c(S(N)(=O)=O)c3-c3nn[nH]n3)cccc2s1 [Example 300, (R)—N1-(3-amino-2-hydroxypropyl)-4-(2-(aminomethyl)benzo[d]thiazol-4-yl)-3-(2H-tetrazol-5-yl)benzene-1,2-disulfonamide] | 0.7813 | 0.7813 | 0.0678 | 0.0703 | 0.318 | 1.00 | 1.563 | 1.563 | 1.563 | – |
| NC[C@@H](O)CNS(=O)(=O)c1ccc(-c2cccc3[nH]cnc23)c(-c2nn[nH]n2)c1S(N)(=O)=O [Example 301, (R)-4-(1H-benzo[d]imidazol-4-yl)-N1-(3-amino-2-hydroxypropyl)-3-(2H-tetrazol-5-yl)-benzene-1,2-disulfonamide] | 0.7813 | 0.7813 | – | 0.0163 | 0.129 | 1.00 | 0.3906 | 3.125 | 1.563 | 0.0528 |
| Cn1c(N)nc2c(-c3ccc(S(=O)(=O)NC[C@H](O)CN)c(S(N)(=O)=O)c3-c3nn[nH]n3)cccc21 [Example 302, (R)-4-(2-amino-1-methyl-1H-benzo[d]imidazol-4-yl)-N1-(3-amino-2-hydroxypropyl)-3-(2H-tetrazol-5-yl)benzene-1,2-disulfonamide] | 0.7813 | 0.7813 | 0.141 | 0.0449 | 0.341 | 1.00 | 0.7813 | 1.563 | 0.7813 | – |
| NC[C@@H](O)CNS(=O)(=O)c1ccc(-c2ccc(N)nc2)c(-c2nn[nH]n2)c1S(N)(=O)=O [Example 303, (R)-N1-(3-amino-2-hydroxypropyl)-4-(6-aminopyridin-3-yl)-3-(2H-tetrazol-5-yl)benzene-1,2-disulfonamide] | 0.7813 | 0.7813 | 0.169 | 0.255 | 0.536 | 1.00 | 0.5859 | 1.953 | 0.2197 | – |
| NC[C@H](O)CNS(=O)(=O)c1ccc(-c2cccc3[nH]c(N)nc23)c(-c2nn[nH]n2)c1S(N)(=O)=O [Example 304, (S)-4-(2-amino-1H-benzo[d]imidazol-4-yl)-N1-(3-amino-2-hydroxypropyl)-3-(2H-tetrazol-5-yl)-benzene-1,2-disulfonamide] | 0.3906 | 0.7813 | – | 0.0608 | 0.617 | 0.50 | 0.7813 | 1.563 | 0.3906 | 0.208 |
| NCc1nc2c(-c3ccc(S(=O)(=O)NC[C@@H](O)CN)c(S(N)(=O)=O)c3-c3nn[nH]n3)cccc2[nH]1 [Example 305, (S)—N1-(3-amino-2-hydroxypropyl)-4-(2-(aminomethyl)-1H-benzo[d]imidazole-4-yl)-3-(2H-tetrazol-5-yl)benzene-1,2-disulfonamide] | 0.7813 | 0.7813 | 0.175 | 0.136 | 2.06 | 1.00 | 1.172 | 1.563 | 1.172 | – |
| NCc1nc2c(-c3ccc(S(=O)(=O)NC[C@@H](O)CN)c(S(N)(=O)=O)c3-c3nn[nH]n3)cccc2s1 [Example 306, (S)—N1-(3-amino-2-hydroxypropyl)-4-(2-(aminomethyl)benzo[d]thiazol-4-yl)-(2H-tetrazol-5-yl)benzene-1,2-disulfonamide] | 0.7813 | 0.7813 | 0.0564 | 0.0587 | 0.293 | 1.00 | 0.7813 | 1.563 | 0.7813 | – |
| NC[C@H](O)CNS(=O)(=O)c1ccc(-c2cccc3[nH]cnc23)c(-c2nn[nH]n2)c1S(N)(=O)=O [Example 307, (S)-4-(1H-benzo[d]imidazol-4-yl)-N1-(3-amino-2-hydroxypropyl)-3-(2H-tetrazol-5-yl)-benzene-1,2-disulfonamide] | 0.7813 | 0.7813 | – | 0.0339 | 0.258 | 1.00 | 1.563 | 1.563 | 1.563 | 0.113 |
| Cn1c(N)nc2c(-c3ccc(S(=O)(=O)NC[C@@H](O)CN)c(S(N)(=O)=O)c3-c3nn[nH]n3)cccc21 [Example 308, (S)-4-(2-amino-1-methyl-1H-benzo[d]imidazol-4-yl)-N1-(3-amino-2-hydroxypropyl)-3-(2H-tetrazol-5-yl)benzene-1,2-disulfonamide] | 0.7813 | 0.7813 | 0.179 | 0.0619 | 0.403 | 1.00 | 0.7813 | 1.563 | 0.3906 | – |
| NC[C@H](O)CNS(=O)(=O)c1ccc(-c2ccc(N)nc2)c(-c2nn[nH]n2)c1S(N)(=O)=O [Example 309, (S)-N1-(3-amino-2-hydroxypropyl)-4-(6-aminopyridin-3-yl)-3-(2H-tetrazol-5-yl)benzene-1,2-disulfonamide] | 0.7813 | 0.7813 | 0.2 | 0.197 | 0.501 | 1.00 | 0.5208 | 1.563 | 0.2279 | – |
| Nc1nc2c(-c3ccc(S(=O)(=O)NC[C@@H]4CNCCN4)c(S(N)(=O)=O)c3-c3nn[nH]n3)cccc2[nH]1 [Example 310, (S)-4-(2-amino-1H-benzo[d]imidazol-4-yl)-N1-(piperazin-2-ylmethyl)-3-(2H-tetrazol-5-yl)benzene-1,2-disulfonamide] | 0.7813 | 0.7813 | – | 0.0521 | 0.667 | 1.00 | 0.7813 | 1.563 | 0.7813 | 0.169 |
